A value given as a limit tells only on which side of the number the result lay.

This assay has as its system Wnt/β-catenin signaling pathway (Wnt-responsive SP5 promoter luciferase reporter in SW480 cells). As to the kind of experiment: Wnt reporter (SP5 promoter-firefly luciferase) activation assay in SW480 cells. In kind it is cell-based. The note with it: Homo sapiens; SW480 colon cancer cells with SP5 promoter luciferase reporter; 24 h after compound addition; normalized to DMSO; concentration at half maximal activation. As for the experimental part: Compounds that enhance the Wnt activity, or Activators, were assayed as follows. Reporter cell lines were generated by stably transducing cells of colon cancer cell lines (with a lentiviral construct that included a Wnt-responsive promoter driving expression of the firefly luciferase gene).
Lentiviral constructs were made in which the SP5 promoter, a promoter having eight TCF/LEF binding sites derived from the SP5 promoter, was linked upstream of the firefly luciferase gene. The lentiviral constructs also included a hygromycin resistance gene as a selectable marker. The SP5 promoter construct was used to transduce SW480 cells, a colon cancer cell line having a mutated APC gene that generates a truncated APC protein, leading to de-regulated accumulation of β-catenin.
Cultured SW480 cells bearing a reporter construct were distributed at approximately 10,000 cells per well into 384- or 96-well multiwell plates. Compounds from a small molecule compound library were then added to the wells in half-log dilutions using a maximum concentration of three or ten micromolar. A series of control wells for each cell type received only buffer and compound solvent DMSO. Twenty-four hours after the addition of compound, reporter activity for luciferase was assayed, for example, by addition of the BrightGlo luminescence reagent (Promega) and the Victor3 plate reader (Perkin Elmer). Readings were normalized to DMSO only treated cells, and any activities above DMSO were considered activation. Compounds were considered activators if reporter activities were 2× fold or greater than DMSO. EC50 is the concentration at half maximal activation.
(In a reporter assay the amount or activity of a reporter protein is the signal.)
Regarding `Cc1ccc(C(=O)CCC(=O)c2ccc3[nH]ncc3c2)cc1` [Compound 503, 1-(1H-Indazol-5-yl)-4-(p-tolyl)butane-1,4-dione], the response was half-maximal at 487 nM (EC50). In the case of `O=C(CCC(=O)c1ccccn1)c1ccc2[nH]ccc2c1` [Compound 258, 1-(1H-Indol-5-yl)-4-(pyridin-2-yl)butane-1,4-dione] it was 16 nM; in that of `O=C(CCC(=O)c1ccc2sccc2c1)c1ccccc1` [Compound 313, 1-(Benzo[b]thiophen-5-yl)-4-phenylbutane-1,4-dione], 44 nM. In the case of `O=C(CCC(=O)c1ccco1)c1ccc2[nH]ncc2c1` [Compound 515, 1-(Furan-2-yl)-4-(1H-indazol-5-yl)butane-1,4-dione] it was 127 nM.

With `O=C(CCC(=O)c1ccccc1C(F)(F)F)c1ccc2c(c1)CCCO2` [Compound 68, 1-(Chroman-6-yl)-4-(2-(trifluoromethyl)phenyl)butane-1,4-dione], the EC50 came to 6 nM.

Compound `O=C(CCC(=O)c1ccc2c(c1)CCCO2)c1ccccc1` [Compound 80, 1-(Chroman-6-yl)-4-phenylbutane-1,4-dione] registered an EC50 of 10 nM. In the case of `O=C(CCC(=O)c1ccc2c(c1)SCCO2)c1ccc(F)cc1` [Compound 21, 1-(2,3-Dihydrobenzo[b][1,4]oxathiin-6-yl)-4-(4-fluorophenyl)butane-1,4-dione] it was 31 nM. Consider `COc1ccc(C(=O)CCC(=O)c2ccc3c(c2)CCCO3)cc1` [Compound 76, 1-(Chroman-6-yl)-4-(4-methoxyphenyl)butane-1,4-dione], for which the EC50 was greater than 10000 nM. In the case of `O=C(CCC(=O)c1ccccn1)c1ccc2c(c1)OC(F)(F)O2` [Compound 232, 1-(2,2-Difluorobenzo[d][1,3]dioxol-5-yl)-4-(pyridin-2-yl)butane-1,4-dione] it was 134 nM; in that of `O=C(CCC(=O)c1ccc2[nH]ncc2c1)c1ccccc1` [Compound 513, 1-(1H-Indazol-5-yl)-4-phenylbutane-1,4-dione], 39 nM; in that of `COc1cccc(C(=O)CCC(=O)c2ccc3[nH]cnc3c2)c1` [Compound 269, 1-(1H-Benzo[d]imidazol-5-yl)-4-(3-methoxyphenyl)butane-1,4-dione], greater than 10000 nM.

For `O=C(CCC(=O)c1ccc2c(c1)CCCO2)c1cccc(C(F)(F)F)c1` [Compound 69, 1-(Chroman-6-yl)-4-(3-(trifluoromethyl)phenyl)butane-1,4-dione], the EC50 is greater than 10000 nM.

Compound `O=C(CCC(=O)c1n[nH]c2ccccc12)c1ccccc1C(F)(F)F` [Compound 326, 1-(1H-Indazol-3-yl)-4-(2-(trifluoromethyl)phenyl)butane-1,4-dione] displayed a half-maximal effective concentration (EC50) of 117 nM. In the case of `O=C(CCC(=O)c1ccc2[nH]cnc2c1)c1ccccc1` [Compound 274, 1-(1H-Benzo[d]imidazol-5-yl)-4-phenylbutane-1,4-dione] it was 6800 nM; in that of `O=C(CCC(=O)c1ncccn1)c1ccc2c(c1)OCO2` [Compound 372, 1-(Benzo[d][1,3]dioxol-5-yl)-4-(pyrimidin-2-yl)butane-1,4-dione], 97 nM; in that of `Cc1ccccc1C(=O)CCC(=O)c1ccc2[nH]ccc2c1` [Compound 445, 1-(1H-indol-5-yl)-4-(o-tolyl)butane-1,4-dione], 10 nM. In the case of `O=C(CCC(=O)c1ccco1)c1ccc2occc2c1` [Compound 462, 1-(Benzofuran-5-yl)-4-(furan-2-yl)butane-1,4-dione] it was 424 nM; in that of `COc1ccccc1C(=O)CCC(=O)c1cccs1` [Compound 562, 1-(2-Methoxyphenyl)-4-(thiophen-2-yl)butane-1,4-dione], 106 nM.

As to `O=C(CCC(=O)c1ccccc1C(F)(F)F)c1ccc2[nH]ncc2c1` [Compound 498, 1-(1H-Indazol-5-yl)-4-(2-(trifluoromethyl)phenyl)butane-1,4-dione], the EC50 is 12 nM. The compound `COc1ccccc1C(=O)CCC(=O)c1n[nH]c2ccccc12` [Compound 332, 1-(1H-Indazol-3-yl)-4-(2-methoxyphenyl)butane-1,4-dione] gave an EC50 of 680 nM. `O=C(CCC(=O)c1ccccc1F)c1ccc2c(c1)OCO2` [Compound 213, 1-(Benzo[d][1,3]dioxol-5-yl)-4-(2-fluorophenyl)butane-1,4-dione] gave an EC50 of 18 nM. `O=C(CCC(=O)c1c[nH]c2ccccc12)c1ccccc1C(F)(F)F` [Compound 314, 1-(1H-Indol-3-yl)-4-(2-(trifluoromethyl)phenyl)butane-1,4-dione]: a half-maximal response (EC50) required 16 nM. In the case of `Cc1cccc(C(=O)CCC(=O)c2ccc3occc3c2)c1` [Compound 456, 1-(Benzofuran-5-yl)-4-(m-tolyl)butane-1,4-dione] it was 673 nM; in that of `O=C(CCC(=O)c1ccccn1)c1ccc2sccc2c1` [Compound 310, 1-(Benzo[b]thiophen-5-yl)-4-(pyridin-2-yl)butane-1,4-dione], 68 nM; in that of `O=C(CCC(=O)c1ncccn1)c1ccccc1` [Compound 718, 1-Phenyl-4-(pyrimidin-2-yl)butane-1,4-dione], 681 nM.

In the case of `O=C(CCC(=O)c1ccccc1F)c1ccc2c(c1)CCCO2` [Compound 71, 1-(Chroman-6-yl)-4-(2-fluorophenyl)butane-1,4-dione], the EC50 turned out to be 2.5 nM. In the case of `Cc1ccccc1C(=O)CCC(=O)c1cccs1` [Compound 560, 1-(Thiophen-2-yl)-4-(o-tolyl)butane-1,4-dione] it was 55 nM.

Turning to `O=C(CCC(=O)c1ccc2ocnc2c1)c1ccccc1` [Compound 300, 1-(Benzo[d]oxazol-5-yl)-4-phenylbutane-1,4-dione], the EC50 turned out to be 18 nM.

Consider `Cc1ccc(C(=O)CCC(=O)c2ccc3occc3c2)cc1` [Compound 457, 1-(Benzofuran-5-yl)-4-(p-tolyl)butane-1,4-dione], for which it took 2890 nM to reach a half-maximal effect (EC50). The compound `O=C(CCC(=O)c1ccc2c(c1)OCO2)c1cccc(F)c1` [Compound 214, 1-(Benzo[d][1,3]dioxol-5-yl)-4-(3-fluorophenyl)butane-1,4-dione] registered an EC50 of 10 nM. With `O=C(CCC(=O)c1n[nH]c2ccccc12)c1ccccc1` [Compound 338, 1-(1H-Indazol-3-yl)-4-phenylbutane-1,4-dione], the EC50 was 64 nM.

Regarding `O=C(CCC(=O)c1ccccc1F)c1ccc2[nH]ccc2c1` [Compound 252, 1-(2-Fluorophenyl)-4-(1H-indol-5-yl)butane-1,4-dione], the EC50 was determined as 1 nM.

`O=C(CCC(=O)c1ccccc1C(F)(F)F)c1ccccn1` [Compound 541, 1-(Pyridin-2-yl)-4-(2-(trifluoromethyl)phenyl)butane-1,4-dione] registered an EC50 of 2810 nM. In the case of `COc1ccccc1C(=O)CCC(=O)c1ccc2c(c1)OCO2` [Compound 216, 1-(Benzo[d][1,3]dioxol-5-yl)-4-(2-methoxyphenyl)butane-1,4-dione] it was 11 nM; in that of `COc1cccc(C(=O)CCC(=O)c2c[nH]c3ccccc23)c1` [Compound 320, 1-(1H-Indol-3-yl)-4-(3-methoxyphenyl)butane-1,4-dione], greater than 10000 nM; in that of `COc1ccc(C(=O)CCC(=O)c2ccncc2)cc1OC` [Compound 209, 1-(3,4-Dimethoxyphenyl)-4-(pyridin-4-yl)butane-1,4-dione], greater than 10000 nM.

For the compound `O=C(CCC(=O)c1ccccc1C(F)(F)F)c1ccc2ocnc2c1` [Compound 288, 1-(Benzo[d]oxazol-5-yl)-4-(2-(trifluoromethyl)phenyl)butane-1,4-dione], the EC50 is greater than 10000 nM. In the case of `O=C(CCC(=O)c1cccs1)c1ccc2c(c1)OCO2` [Compound 374, 1-(Benzo[d][1,3]dioxol-5-yl)-4-(thiophen-2-yl)butane-1,4-dione], the EC50 amounted to 13 nM. In the case of `COc1ccccc1C(=O)CCC(=O)c1cccc2c1OCCO2` [Compound 242, 1-(2,3-Dihydrobenzo[b][1,4]dioxin-5-yl)-4-(2-methoxyphenyl)butane-1,4-dione], the response was half-maximal at 789 nM (EC50). In the case of `O=C(CCC(=O)c1ccc2[nH]ccc2c1)c1ccccc1` [Compound 261, 1-(1H-indol-5-yl)-4-phenylbutane-1,4-dione] it was 42 nM; in that of `O=C(CCC(=O)c1ccc2c(c1)OCCO2)c1ccncc1` [Compound 15, 1-(2,3-Dihydrobenzo[b][1,4]dioxin-6-yl)-4-(pyridin-4-yl)butane-1,4-dione], 90 nM. For the compound `O=C(CCC(=O)c1ccccc1F)c1cccs1` [Compound 557, 1-(2-Fluorophenyl)-4-(thiophen-2-yl)butane-1,4-dione], the EC50 was 26 nM. In the case of `COc1cccc(C(=O)CCC(=O)c2ccc3c(c2)OCO3)c1` [Compound 217, 1-(Benzo[d][1,3]dioxol-5-yl)-4-(3-methoxyphenyl)butane-1,4-dione] it was 343 nM. In the case of `O=C(CCC(=O)c1c[nH]c2ccccc12)c1ccc(C(F)(F)F)cc1` [Compound 316, 1-(1H-Indol-3-yl)-4-(4-(trifluoromethyl)phenyl)butane-1,4-dione] it was greater than 10000 nM; in that of `Cc1ccccc1C(=O)CCC(=O)c1c[nH]c2ccccc12` [Compound 518, 1-(1H-Indol-3-yl)-4-(o-tolyl)butane-1,4-dione], 646 nM.

Usually EC50 stands for the concentration at which the effect is half-maximal. A low value points to greater potency.

The values are drawn from patent publication US10457672B2, “γ-diketones as Wnt/β-catenin signaling pathway activators” (Samumed, LLC, priority 2013, dated 2019).
